In brackets after ≈: the same amount, converted by molar mass. Where two headings read alike, the source gives them in different places.
Tests used:
[1] = tested on: MCF-7 human breast cancer cells; assay: XTT cytotoxicity assay; type: cell-based; details: MCF7, MCF-7, 72 hours, some cells marked (M)
Procedure: The XTT assay is a non-radioactive alternative for the [^51 Cr] release cytotoxicity assay. XTT is a tetrazolium salt that is reduced to a formazan dye only by metabolically active, viable cells. The reduction of XTT is measured spectrophotometrically as OD490-OD650.
To measure the cytotoxicity of specific compounds against cancer cells, 9×10^3 MCF-7 human breast cancer cells, obtained from the American Type Culture Collection are plated per well in 96 well plates in DMEM medium with 10% fetal bovine serum, insulin, penicillin, and streptomycin. Following overnight culture at 37° C. and 5% CO2, the compounds to be tested, dissolved in DMSO, are added to the wells in 1 μl volume at the following concentrations: 80, 40, 20, 10, 5, 2.5, 1.25, and 0.625 μg/ml in triplicate. Additional concentrations are tested if required. 1 μl of DMSO is added to triplicate wells are the vehicle control. C75 is run at 40, 20, […], and 5 μg/ml in triplicate as positive controls. After 72 hours of incubation, cells are incubated for 4 hours with the XTT reagent as per manufacturer's instructions (Cell Proliferation Kit II (XTT) Roche). Plates are read at OD490 and OD650 on a Molecular Devices SpectraMax Plus Spectrophotometer. Three wells containing the XTT reagent without cells serve as the plate blank. XTT data are reported as OD490-OD650-Averages and standard error of the mean are computed using SOFTmax Pro software (Molecular Dynamics).
The IC50 for the compounds is defined as the concentration of drug leading to a 50% reduction in OD490-OD650 compared to controls. The OD490-OD650 are computed by the SOFTmax PRO software (Molecular Devices) for each compound concentration. IC50 is calculated by linear regression, plotting the FAS activity as percent of control versus drug concentrations. Linear regression, best-fit line, r^2, and 95% confidence intervals are determined using Prism Version 3.0 (Graph Pad Software).

[2] = biological target: T1, purified human FAS (Homo sapiens, UniProt P49327); assay: Measurement of FAS enzymatic activity (NADPH oxidation), IC50; type: biochemical
T1 construct: Human FAS was purified from cultured ZR-75-1 human breast cancer cells; endogenous in cells; host or cells: ZR-75-1 human breast cancer cells (ATCC); endogenous enzyme purified by PEG precipitation and Mono Q anion exchange
T1 sequence (P49327 whole entry): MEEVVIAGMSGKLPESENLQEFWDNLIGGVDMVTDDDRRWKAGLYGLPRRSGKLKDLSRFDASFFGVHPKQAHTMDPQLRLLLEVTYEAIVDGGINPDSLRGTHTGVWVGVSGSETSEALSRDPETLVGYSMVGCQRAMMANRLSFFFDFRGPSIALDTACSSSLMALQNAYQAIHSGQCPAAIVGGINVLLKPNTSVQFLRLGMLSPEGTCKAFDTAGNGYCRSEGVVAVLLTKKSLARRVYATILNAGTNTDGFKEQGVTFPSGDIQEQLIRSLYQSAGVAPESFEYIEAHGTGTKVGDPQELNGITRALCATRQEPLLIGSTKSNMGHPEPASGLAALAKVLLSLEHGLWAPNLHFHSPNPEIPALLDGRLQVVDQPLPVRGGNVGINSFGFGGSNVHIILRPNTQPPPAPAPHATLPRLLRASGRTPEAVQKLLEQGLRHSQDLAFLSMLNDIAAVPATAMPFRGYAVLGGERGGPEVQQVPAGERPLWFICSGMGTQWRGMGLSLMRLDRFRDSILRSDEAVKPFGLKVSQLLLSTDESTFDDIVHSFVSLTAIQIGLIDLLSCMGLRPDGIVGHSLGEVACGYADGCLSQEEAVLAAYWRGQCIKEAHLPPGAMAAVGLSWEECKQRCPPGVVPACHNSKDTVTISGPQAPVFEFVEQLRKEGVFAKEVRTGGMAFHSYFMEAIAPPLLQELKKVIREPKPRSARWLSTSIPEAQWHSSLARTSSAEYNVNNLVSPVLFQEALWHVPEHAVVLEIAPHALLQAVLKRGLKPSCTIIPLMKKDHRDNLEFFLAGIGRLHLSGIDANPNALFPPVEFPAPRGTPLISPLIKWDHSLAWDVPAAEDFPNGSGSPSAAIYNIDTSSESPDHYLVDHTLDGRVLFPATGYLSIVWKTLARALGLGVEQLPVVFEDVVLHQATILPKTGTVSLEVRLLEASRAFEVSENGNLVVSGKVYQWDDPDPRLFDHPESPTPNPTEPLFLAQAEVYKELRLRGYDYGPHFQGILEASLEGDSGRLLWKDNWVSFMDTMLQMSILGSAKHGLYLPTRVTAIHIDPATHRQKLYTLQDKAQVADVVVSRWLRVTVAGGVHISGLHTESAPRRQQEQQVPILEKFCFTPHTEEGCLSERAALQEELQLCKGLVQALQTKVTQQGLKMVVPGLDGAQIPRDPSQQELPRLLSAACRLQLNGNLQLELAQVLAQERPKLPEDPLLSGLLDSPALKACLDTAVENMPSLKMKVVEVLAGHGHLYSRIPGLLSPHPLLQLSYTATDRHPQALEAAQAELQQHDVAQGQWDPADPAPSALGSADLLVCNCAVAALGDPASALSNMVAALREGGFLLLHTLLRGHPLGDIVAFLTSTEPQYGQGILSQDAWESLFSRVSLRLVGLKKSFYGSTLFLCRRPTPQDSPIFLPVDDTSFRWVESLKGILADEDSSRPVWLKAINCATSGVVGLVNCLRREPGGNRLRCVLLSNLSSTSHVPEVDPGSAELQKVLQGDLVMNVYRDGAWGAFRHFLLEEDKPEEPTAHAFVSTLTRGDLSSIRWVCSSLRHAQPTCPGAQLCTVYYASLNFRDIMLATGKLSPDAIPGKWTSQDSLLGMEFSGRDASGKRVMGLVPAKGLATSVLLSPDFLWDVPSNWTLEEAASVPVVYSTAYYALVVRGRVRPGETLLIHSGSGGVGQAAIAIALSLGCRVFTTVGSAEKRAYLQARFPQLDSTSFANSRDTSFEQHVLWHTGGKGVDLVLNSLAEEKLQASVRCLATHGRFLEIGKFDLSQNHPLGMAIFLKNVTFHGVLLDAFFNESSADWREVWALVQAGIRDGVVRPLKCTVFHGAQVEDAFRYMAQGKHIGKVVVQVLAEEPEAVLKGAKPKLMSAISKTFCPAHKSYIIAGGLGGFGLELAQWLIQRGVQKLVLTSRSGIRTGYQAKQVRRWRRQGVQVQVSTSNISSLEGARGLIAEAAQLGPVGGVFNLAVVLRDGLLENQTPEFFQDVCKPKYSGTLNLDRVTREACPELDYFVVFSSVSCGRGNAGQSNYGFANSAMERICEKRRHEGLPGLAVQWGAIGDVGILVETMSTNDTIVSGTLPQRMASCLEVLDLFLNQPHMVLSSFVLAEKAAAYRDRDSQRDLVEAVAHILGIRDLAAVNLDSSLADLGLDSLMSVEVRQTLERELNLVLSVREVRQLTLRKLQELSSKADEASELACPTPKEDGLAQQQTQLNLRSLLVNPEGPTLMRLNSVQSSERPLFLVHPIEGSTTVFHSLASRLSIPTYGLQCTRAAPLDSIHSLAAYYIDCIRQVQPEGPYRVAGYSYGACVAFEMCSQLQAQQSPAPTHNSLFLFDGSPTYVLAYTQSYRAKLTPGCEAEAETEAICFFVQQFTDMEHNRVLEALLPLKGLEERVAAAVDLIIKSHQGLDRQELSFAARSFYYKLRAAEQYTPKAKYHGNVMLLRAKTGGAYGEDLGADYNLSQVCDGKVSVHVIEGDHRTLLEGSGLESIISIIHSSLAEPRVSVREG
Procedure: Human FAS was purified from cultured ZR-75-1 human breast cancer cells obtained from the American Type Culture Collection. The procedure, adapted from Linn et al., 1981, and Kuhajda et al., 1994, utilizes hypotonic lysis, successive polyethyleneglycol (PEG) precipitations, and anion exchange chromatography. […] The lysate is centrifuged in JA-20 rotor (Beckman) at 20,000 rpm for 30 minutes at 4° C. and the supernatant is brought to 42 ml with lysis buffer. A solution of 50% PEG 8000 in lysis buffer is added slowly to the supernatant to a final concentration of 7.5%. After rocking for 60 minutes at 4° C., the solution is centrifuged in JA-20 rotor (Beckman) at 15,000 rpm for 30 minutes at 4° C. […] After the rocking and centrifugation is repeated as above, the pellet is resuspended overnight at 4° C. in 10 ml of Buffer A (20 mM K2HPO4, pH 7.4). After 0.45 μM filtration, the protein solution is applied to a Mono Q 5/5 anion exchange column (Pharmacia). The column is washed for 15 minutes with buffer A at 1 ml/minute, and bound material is eluted with a linear 60-ml gradient over 60 minutes to 1 M KCl. […] FAS protein concentration is determined using the Coomassie Plus Protein Assay Reagent (Pierce) according to manufacturer's specifications using BSA as a standard. This procedure results in substantially pure preparations of FAS (>95%) as judged by Coomassie-stained gels. FAS activity is measured by monitoring the malonyl-CoA dependent oxidation of NADPH spectrophotometrically at OD340 in 96-well plates (Dils et al and […] et al, 1975). […] For each experiment, cerulenin (Sigma) is run as a positive control along with DMSO controls, inhibitors, and blanks (no FAS enzyme) all in duplicate. The assay is performed on a Molecular Devices SpectraMax Plus Spectrophotometer. The plate containing FAS, buffers, inhibitors, and controls are placed in the spectrophotometer heated to 37° C. Using the kinetic protocol, the wells are blanked on duplicate wells containing 100 μl of 100 mM K2HPO4, pH 6.5 and the plate is read at OD340 at 10 sec intervals for 5 minutes to measure any malonyl-CoA independent oxidation of NADPH. The plate is removed from the spectrophotometer and malonyl-CoA (67.4 μM, final concentration per well) and […] (61.8 μM, final concentration per well) are added to each well except to the blanks. The plate is read again as above with the kinetic protocol to measure the malonyl-CoA dependent NADPH oxidation. The difference between the Δ OD340 for the malonyl-CoA dependent and non-malonyl-CoA dependent NADPH oxidation is the specific FAS activity. Because of the purity of the FAS preparation, non-malonyl-CoA dependent NADPH oxidation is negligible. […] Graphs of Δ OD340 versus time are plotted by the SOFTmax PRO software (Molecular Devices) for each compound concentration.

[3] = tested on: Escherichia coli (ATCC # 25922); assay: Broth microdilution MIC; type: cell-based; details: for MIC: Escherichia coli, ATCC25922
Procedure: (§1) A broth microdilution assay is used to assess the antimicrobial activity of the compounds. […] Microorganisms tested include Staphylococcus aureus (ATCC # 29213), Enterococcus faecalis (ATCC # 29212), Pseudomonas aeruginosa (ATCC # 27853), and Escherichia coli (ATCC # 25922). The assay is performed in two growth media, Mueller Hinton Broth and Trypticase Soy Broth. […] Colonies are suspended in sterile broth so that the turbidity matches the turbidity of a 0.5 McFarland standard. The inoculum is diluted 1:10 in sterile broth (Mueller Hinton or Trypticase soy) and 195 ul is dispensed per well of a 96-well plate. The compounds to be tested, dissolved in DMSO, are added to the wells in 5 ul volume at the following concentrations: 25, 12.5, 6.25, 3.125, 1.56 and 0.78 ug/ml in duplicate. Additional concentrations are tested if required. 5 ul of DMSO added to duplicate wells are the vehicle control. Serial dilutions of positive control compounds, vancomycin (E. faecalis and S. aureus) and tobramycin (E. coli and P. aeruginosa), are included in each run. After 24 hours of incubation at 37° C., plates are read at OD600 on a Molecular Devices SpectraMax Plus Spectrophotometer. Average OD600 values are computed using SOFTmax Pro Software (Molecular Devices) and MIC values are determined by linear regression analysis using Prism version 3.02 (Graph Pad Software, San Diego).

[4] = tested on: Staphylococcus aureus (ATCC # 29213); assay: Broth microdilution MIC; type: cell-based; details: for MIC: Staphylococcus aureus, ATCC29213
Procedure: as §1

[5] = Trypticase Soy Broth, read-out: Ecoli/Tsoy(MIC)
[6] = Trypticase Soy Broth, read-out: SA/Tsoy(MIC)
[7] = Mueller Hinton Broth, read-out: Ecoli/MH(MIC)
[8] = Mueller Hinton Broth, read-out: SA/MH(MIC)

| SMILES | IC50 [1] | IC50 [2] | MIC [3, 5] | Ecoli/MH(MIC) ([3]; Mueller Hinton Broth) | SA/MH(MIC) ([4]; Mueller Hinton Broth) | MIC [4, 6] | FAS(IC50) [2] | MIC [3, 7] | Ecoli/Tsoy(MIC) ([3]; Trypticase Soy Broth) | MIC [4, 8] |
| --- | --- | --- | --- | --- | --- | --- | --- | --- | --- | --- |
| CCCCCCCCC1(C)SC(=O)C=C1O (centres unmarked) | 17.6 ± 0.1 µg/mL (≈ 72.6 µM) | 18.6 µM | 278 µg/mL (≈ 1150 µM) | Neg | Neg | 47 µg/mL (≈ 194 µM) | – | – | – | – |
| CCCCCC[C@@]1(C)SC(=O)C=C1OCC(=O)NCC(=O)OC (racemic) | 40.5 ± 5.1 µg/mL (≈ 118 µM) | – | – | – | – | 111 µg/mL (≈ 323 µM) | Neg | 156 µg/mL (≈ 454 µM) | Neg | 69 µg/mL (≈ 201 µM) |
| C=C/C(C)=C/C1(C)SC(=O)C=C1O (centres unmarked) | > 80 µg/mL | 44.8 µM | – | – | – | 102 µg/mL (≈ 520 µM) | – | 290 µg/mL (≈ 1480 µM) | – | 235 µg/mL (≈ 1200 µM) |
| C#CCOC1CC(=O)S[C@]1(C)CCCCCC (mixture of isomers) | 8.9 ± 2.3 µg/mL | – | – | – | – | 80 µg/mL | Neg | 203 µg/mL | Neg | 53 µg/mL |
| CCCCCC[C@@]1(C)SC(=O)C=C1OCC(=O)NCC(=O)O (racemic) | > 80 µg/mL | – | 235 µg/mL (≈ 713 µM) | Neg | – | 225 µg/mL (≈ 683 µM) | Neg | – | – | 78 µg/mL (≈ 237 µM) |
| C=CCOC1=CC(=O)S[C@]1(C)CCCCCCCC (racemic) | 14.5 ± 1.5 µg/mL (≈ 51.3 µM) | – | – | Neg | – | 85 µg/mL (≈ 301 µM) | Neg | – | Neg | 127 µg/mL (≈ 450 µM) |
| C/C=C/C(C)=C/C1(C)SC(=O)C=C1O (centres unmarked) | > 80 µg/mL | 339 µM | – | Neg | – | 87 µg/mL (≈ 414 µM) | – | – | Neg | 52 µg/mL (≈ 247 µM) |
| CCCCCCCCC1(C)SC(=O)C(C(C)O)=C1O (centres unmarked) | 23.9 ± 2.9 µg/mL (≈ 83.4 µM) | 11.5 µM | – | Neg | – | 12 ± 0.5 µg/mL (≈ 41.9 µM) | – | – | Neg | 53.1 ± 0.5 µg/mL (≈ 185 µM) |
| CCCC/C=C/C=C/C1(C)SC(=O)C=C1O (centres unmarked) | 59.4 ± 6.4 µg/mL (≈ 249 µM) | 36.1 µM | 263 µg/mL (≈ 1100 µM) | Neg | Neg | 55 µg/mL (≈ 231 µM) | – | – | – | – |
| CCCCCCCC[C@@]1(C)SC(=O)C=C1OCC(=O)OCC (racemic) | 35.3 ± 10.4 µg/mL (≈ 107 µM) | – | – | Neg | Neg | 83 µg/mL (≈ 253 µM) | Neg | – | Neg | – |
| CCCCCC[C@@]1(C)SC(=O)C=C1OCCCCCl (racemic) | 20.8 ± 0.9 µg/mL (≈ 68.2 µM) | – | – | Neg | – | 50 µg/mL (≈ 164 µM) | Neg | – | Neg | 164 µg/mL (≈ 538 µM) |
| CCCCCCCCC1(C)SC(=O)C(C)=C1OC (centres unmarked) | 17.3 ± 5.9 µg/mL (≈ 64 µM) | – | – | Neg | – | 108 µg/mL (≈ 399 µM) | Neg | – | Neg | 132 µg/mL (≈ 488 µM) |
| CCCCCCCC[C@@]1(C)SC(=O)C=C1OC(=O)NC(C)C (racemic) | 45.7 ± 25.9 µg/mL (≈ 140 µM) | 246 µM | – | Neg | – | 39 µg/mL (≈ 119 µM) | – | – | Neg | 32 µg/mL (≈ 97.7 µM) |
